Structures can show the parent of a compound that is named as a salt.

Series [1] can be described thus: CellTiter Glo cell viability assay, A2780 cells. As to conditions: human, A2780 Cell Viability; for viability at 24 h, 800 μM: vehicle alone 800 μM; for viability at 24 h, 1600 μM: vehicle alone 1600 μM; for viability at 24 h, 3200 μM: vehicle alone 3200 μM. On the procedure:
(§1) Two types of human tumor cells were used in this investigation: BXPC3 human pancreatic cancer cells and A2780 human ovarian cancer cells. The BXPC3 cells were originally obtained from American Type Cell Culture (ATCC). The ovarian tumor cells were gifts from Roswell Park Cancer Institute, Buffalo, N.Y. All tumor cells were maintained at 37° C. in a humidified 5% CO2 atmosphere in T75 tissue culture flasks containing 20 mL of Roswell Park Memorial Institute (RPMI) 1640 containing 2 mM L-glutamine, 10% fetal bovine serum (FBS) and 1% penicillin and streptomycin (100 IU/mL penicillin and 100 μg/mL streptomycin). The tumor cells were split at a ratio of 1:5 every 4-5 days by trypsinization and resuspended in fresh medium in a new flask. Cells were harvested for experiments at 70-90% confluency.
(§2) CPI-613 (i.e., 6,8-bis(benzylthio)octanoic acid) stock solutions at concentrations of 8, 4, 2, 1.5 and 0.5 mM were prepared in the appropriate vehicles. The molar ratio of vehicle to CPI-613 was maintained at 8:1. The corresponding vehicle concentrations were 64, 32, 16, 12, and 4 mM respectively. A sixty-four mM aliquot of vehicle was dissolved in 10 mL of water. Next, 8 mM of CPI-613 was added and the mixture was stirred until a clear solution was obtained. […] A 5 μL aliquot of this stock solution was added to 95 μL of tumor cells in media. Upon dilution in the wells, the corresponding drug concentrations were 400, 200, 100, 75 and 25 μM respectively.
(§3) For the sodium salt and potassium salt form of CPI-613, 1 equivalent of CPI-613 solid was dissolved in water. Sixty-two mg of CPI-613 (0.00016 mol) was added to 10 mL of water, then 165 μL of 1M NaOH or KOH was added and stirred until a clear solution was obtained. This gave a 16 mM solution. The resulting 16 mM solution was then serially diluted, thereby providing 8 mM and 4 mM solutions of the CPI-613 salt form. For the ammonium salt, vehicle to drug ratio was maintained at 8:1 and the formulation was prepared using procedures analogous to those described above in Section 2 relating to preparation of CPI-613 formulations in different vehicles.
(§4) CPI-613 formulated in 1M triethanolamine (TEA) was used as an internal control during formulation screening. To prepare a 16 mM of working stock of CPI-613, 50 mg/mL of CPI-613 (128.66 mM of CPI-613 in 1M TEA) was diluted in complete cell culture media containing 10% FBS. That is, 310 μL of a 128.66 mM solution of CPI-613 in 1M TEA was added to 2.19 mL of cell culture media. This stock was further diluted serially in complete media to give 8 mM, 4 mM 2 mM, 1.5 mM and 0.5 mM working solutions. On the day of testing, 5 μL of this working solution was added to 95 μL of cell culture media (20 fold dilution) resulting final concentrations of 400, 200, 100, 75 and 25 μM CPI-613, respectively. The ratio of CPI-613 to TEA was maintained at 1:8 ratio at all times.
(§5) The cell viability of CPI-613 formulations formulated at a ratio of 1:8, CPI-613 to vehicle, was assessed by exposing the A2780 ovarian tumor cells and BXPC3 human pancreatic cancer cells to the following CPI-613 concentrations: 400 μM (3200 μM vehicle), 200 μM (1600 μM vehicle), 100 μM (800 μM vehicle), 75 μM (600 μM vehicle) and 25 μM (200 μM vehicle) The impact of corresponding vehicles at 3200, 1600 and 800 μM concentrations was also tested in tumor cells for cell viability. […] CPI-613 in TEA was used as an internal control. The tumor cells were treated for 24 hrs with the test article in serum-containing medium. After 24 hrs of treatment the number of viable tumor cells was determined.
(§6) The number of cells targeted for the study was 4×10^3 per well in 100 μL of medium. The actual number of cells were counted and seeded in the wells of a 96 well-plate. The cells were incubated for ˜24 hrs before addition of CPI-613.
(§7) For each cell line the concentrations of test articles or vehicles specified above was used.

Series [2] is described as follows: CellTiter Glo cell viability assay, BXPC3 cells. To be noted: human, BXPC3 Cell Viability; for viability at 24 h, 800 μM: vehicle alone 800 μM; for viability at 24 h, 1600 μM: vehicle alone 1600 μM; for viability at 24 h, 3200 μM: vehicle alone 3200 μM. On the procedure:
as §1, §2, §3, §4, §5, §6, §7
On the technique in general: In ATP-based viability assays light output follows the ATP content of the culture.

For series [3], the system named is A2780 ovarian tumor cells and BXPC3 human pancreatic cancer cells. In words: CellTiter Glo cell viability assay, text statements not split by cell line. Type of series: cell-based. As to conditions: vehicle alone 3200 μM. Here is the method: Two types of human tumor cells were used in this investigation: BXPC3 human pancreatic cancer cells and A2780 human ovarian cancer cells. The BXPC3 cells were originally obtained from American Type Cell Culture (ATCC). […] The tumor cells were split at a ratio of 1:5 every 4-5 days by trypsinization and resuspended in fresh medium in a new flask. Cells were harvested for experiments at 70-90% confluency.
The corresponding vehicle concentrations were 64, 32, 16, 12, and 4 mM respectively. A sixty-four mM aliquot of vehicle was dissolved in 10 mL of water. […] A 5 μL aliquot of this stock solution was added to 95 μL of tumor cells in media. Upon dilution in the wells, the corresponding drug concentrations were 400, 200, 100, 75 and 25 μM respectively.
This gave a 16 mM solution.
This stock was further diluted serially in complete media to give 8 mM, 4 mM 2 mM, 1.5 mM and 0.5 mM working solutions.
The tumor cells were treated for 24 hrs with the test article in serum-containing medium. After 24 hrs of treatment the number of viable tumor cells was determined.
The number of cells targeted for the study was 4×10^3 per well in 100 μL of medium. The actual number of cells were counted and seeded in the wells of a 96 well-plate.
For each cell line the concentrations of test articles or vehicles specified above was used. Five μL of the working solution for each test article or vehicle was added to 95 μL of cell culture media. The corresponding final concentrations of test articles are 20 fold more diluted than the working solutions. […] Additionally, a set of wells was treated with cell culture medium in the absence of cells to obtain a value for background luminescence.
The number of viable cells was determined by using the CellTiter Glo® Assay. Specifically, reagents were mixed and allowed to come to room temperature according to instructions from Promega, Inc. (Madison, Wis.). Cell plates were removed from the cell culture incubator and left on the bench for 30 minutes until they reach room temperature. A one-hundred μL aliquot CellTiter Glo® reagent was added to each well with a 12-channel Eppendorf pipettor. The cells were lysed by shaking the plate for 2 minutes in a shaker. Then, the cells were kept at room temperature for 10 minutes to stabilize the luminescent signal. The luminescence was measured using the FLUOstar OPTIMA plate reader (BMG Labtech, Inc., Durham, N.C.).
Data from luminescence readings was copied onto EXCEL spreadsheets, and cell growth relative to untreated cells was calculated, using the following equation: […]
The calculated values were imported into SigmaPlot, v11. A Four-Parameter Logistic Curve of the “mean relative cell growth as a function of the concentrations of the test articles” was generated. The EC50 values were determined from the curves. The R-squared value provides an indication of the degree of fitness of data to the curve. For each experiment, the percentage of viable cells was be expressed as the mean of 9 replicates. The average was calculated by taking the mean±standard deviation of the three experiments.

For series [4], the system named is A2780 human ovarian cancer cells. The series can be described thus: CellTiter Glo cell viability assay, A2780 cells. To be noted: 24 hrs; for A2780 Cell Viability (alkali salt formulations): CPI-613 to base 1:1. Here is the method: as §1, §2, §3, §4, §5, §6, §7
Series [5] relates to BXPC3 human pancreatic cancer cells. The series can be described thus: CellTiter Glo cell viability assay, BXPC3 cells. As to conditions: 24 hrs; for BXPC3 Cell Viability (alkali salt formulations): CPI-613 to base 1:1. On the procedure: as §1, §2, §3, §4, §5, §6, §7

The term viability denotes a per cent measure of how many cells are alive, often set against a control. In the case of `CCNCC` [Diethylamine], in series [1], the viability at 24 h, 800 μM is over 95%; the viability at 24 h, 1600 μM was over 95%; the viability at 24 h, 3200 μM was in the range of 85 to 95%. Also, in series [2], the viability at 24 h, 800 μM is over 95%; the viability at 24 h, 1600 μM lay in the range of 70 to 85%; the viability at 24 h, 3200 μM was under 70%. Also, in series [3], the “impact of vehicle on cancer cell killing” value is on record as “did not show a significant impact on cancer cell killing”.

Regarding `NCCCO` [3-amino-1-proponol], the “impact of vehicle on cancer cell killing” value in series [3] is recorded as “did not show a significant impact on cancer cell killing”.

In series [1] (A2780 ovarian cancer cells), `NC(CO)(CO)CO` [Tris base] yielded a viability at 24 h, 800 μM of over 95%; a viability at 24 h, 1600 μM of over 95%; a viability at 24 h, 3200 μM of over 95%. In series [2] (BXPC3 pancreatic cancer cells), this molecule gave a viability at 24 h, 800 μM of over 95%; a viability at 24 h, 1600 μM of over 95%; a viability at 24 h, 3200 μM of over 95%. In series [3], the “impact of vehicle on cancer cell killing” value is “did not show a significant impact on cancer cell killing”.

Take `O=C(O)CCCCC(CCSCc1ccccc1)SCc1ccccc1` (stereo not shown) [CPI-613 potassium salt]: the “A2780 Cell Viability (alkali salt formulations)” value in series [4] (CPI-613 25 μM) is reported as “++ (tumor cell viability of >70% up to 95%)”; in series [4] (CPI-613 75 μM) it was “++ (tumor cell viability of >70% up to 95%)”; in series [4] (CPI-613 100 μM), “++ (tumor cell viability of >70% up to 95%)”; in series [4] (CPI-613 200 μM), “+++ (tumor cell viability of >30% up to 70%)”; in series [4] (CPI-613 400 μM) it was “+++++ (tumor cell viability of ≤10%)”. Besides, the “cell kill in A2780 cells” value in series [4] (salt formulation at 200 μM) is on record as about 65%; in series [4] (salt formulation at 400 μM) it was “all the cells were killed”. Moreover, the “BXPC3 Cell Viability (alkali salt formulations)” value is listed as “+ (tumor cell viability of >95%)” in series [5] (CPI-613 25 μM); “++ (tumor cell viability of >70% up to 95%)” in series [5] (CPI-613 75 μM); “++ (tumor cell viability of >70% up to 95%)” in series [5] (CPI-613 100 μM); “+++ (tumor cell viability of >30% up to 70%)” in series [5] (CPI-613 200 μM); “+++++ (tumor cell viability of ≤10%)” in series [5] (CPI-613 400 μM). Also, the entries for the “cell kill in BXPC3 cells” value in series [5] (salt formulation at 200 μM) and in series [5] (salt formulation at 400 μM) were about 50% and “all the cells were killed”, respectively.

In series [1] (A2780 ovarian cancer cells), `OCCNCCO` [Diethanolamine] gave a viability at 24 h, 800 μM of 85 to 95%; a viability at 24 h, 1600 μM of 85 to 95%; a viability at 24 h, 3200 μM of over 95%. In addition, in series [2] (BXPC3 pancreatic cancer cells), the viability at 24 h, 800 μM lay within 85 to 95%; the viability at 24 h, 1600 μM lay in the range of 85 to 95%; the viability at 24 h, 3200 μM lay in the range of 85 to 95%. Further, in series [3], the “impact of vehicle on cancer cell killing” value is “did not show a significant impact on cancer cell killing”.

As for `C1CNCCN1` [Piperazine], in series [1] (A2780 ovarian cancer cells), the viability at 24 h, 800 μM lay within 85 to 95%; the viability at 24 h, 1600 μM was in the range of 70 to 85%; the viability at 24 h, 3200 μM was in the range of 85 to 95%. In series [2] (BXPC3 pancreatic cancer cells), this molecule registered a viability at 24 h, 800 μM of 85 to 95%; a viability at 24 h, 1600 μM of 85 to 95%; a viability at 24 h, 3200 μM of 70 to 85%. Moreover, the “impact of vehicle on cancer cell killing” value in series [3] was “did not show a significant impact on cancer cell killing”.

Consider `NCCN` [Ethylenediamine], for which, in series [1] (A2780 ovarian cancer cells), the viability at 24 h, 800 μM was in the range of 85 to 95%; the viability at 24 h, 1600 μM lay in the range of 85 to 95%; the viability at 24 h, 3200 μM was under 70%. Besides, in series [2] (BXPC3 pancreatic cancer cells), the viability at 24 h, 800 μM is over 95%; the viability at 24 h, 1600 μM lay within 70 to 85%; the viability at 24 h, 3200 μM was under 70%. The “impact of vehicle on cancer cell killing” value in series [3] is “appear to have come cell killing effects”.

As to `CC(O)CNCC(C)O` (stereo not shown) [Diisopropanolamine], the “impact of vehicle on cancer cell killing” value in series [3] is on record as “appear to have come cell killing effects”.

Take Aminopropanediol: the “impact of vehicle on cancer cell killing” value in series [3] is “did not show a significant impact on cancer cell killing”.

Regarding `NCCO` [Ethanolamine], in series [1] (A2780 ovarian cancer cells), the viability at 24 h, 800 μM is over 95%; the viability at 24 h, 1600 μM is over 95%; the viability at 24 h, 3200 μM is over 95%. Besides, in series [2] (BXPC3 pancreatic cancer cells), the viability at 24 h, 800 μM fell in the range of 85 to 95%; the viability at 24 h, 1600 μM is 85 to 95%; the viability at 24 h, 3200 μM was in the range of 85 to 95%.

For the origin of these results see patent publication US11065335B2, “Methods of treating leukemia using compositions containing bis(benzylthio)octanoic acid and ion pairs thereof” (Rafael Pharmaceuticals, Inc., priority 2007, dated 2021).
